# Measurements published in patent publication US10280145B2 (Toray Industries, Inc., priority 2015, dated 2019).
# Target: T1, intracellular domain of DDR1 (Homo sapiens, UniProt Q08345)
# T1 construct: the intracellular domain of DDR1 (in a final concentration of 5 ng/μL) (Carna Biosciences, Inc.); purchased Carna Biosciences, Inc
# Experiment: Evaluation of DDR1 inhibition activity with HTRF KinEASE-TK kit
# Assay type: biochemical
# Settings: DDR1 intracellular domain 5 ng/μL, ATP 25 μm/L, TK Substrate-biotin 1000 nmol/L, room temperature, one hour
# Protocol: The DDR1 inhibition activity in the compounds of Examples 1 to 80 was evaluated with HTRF® KinEASE-TK kit (Cisbio Bioassays).
# Each test substance was dissolved in dimethyl sulfoxide and then used for the evaluation as described below. Moreover, each of test substances and reagents was diluted in the kinase buffer (Cisbio Bioassays) prepared by adding thereto MgCl2, MnCl2, DTT, and the Supplemental Enzyme buffer (Cisbio Bioassays) to concentrations of 5 mmol/L, 0.5 mmol/L, 0.25 mmol/L, and 50 nmol/L, respectively, and then used. Each test substance (in DMSO in a final concentration of 1%), the intracellular domain of DDR1 (in a final concentration of 5 ng/μL) (Carna Biosciences, Inc.), the phosphate donor ATP (in final concentration of 25 μm/L) (Sigma), and the substrate TK Substrate-biotin (in a final concentration of 1000 nmol/L) (Cisbio Bioassays) were added to a 384-well black plate (Corning) and allowed to react at room temperature for one hour. After completion of the reaction, the TK Antibody-Cryptate (Cisbio Bioassays) and the Streptavidin-XL665 (Cisbio Bioassays) were added thereto and allowed to react at room temperature for one hour. In addition, the plate was provided with a well to which a test substance was not added, and with a well to which a test substance and the intracellular domain of DDR1 were […].
# The fluorescence intensity in each well was measured using a multi-label counter (Envision, PerkinElmer; excitation wavelength: 320 nm, measurement wavelength: 665 nm and 620 nm) to calculate a ratio (the fluorescence intensity at 665 nm/the fluorescence intensity at 620 nm). The inhibition rate (%) of a test substance at each concentration was calculated based on the formula below: Inhibition rate (%)=([the ratio obtained from the well containing no test substance]−[the ratio from a well containing a test substance])/([the ratio obtained from the well containing no test substance]−[the ratio obtained from the well containing no intracellular domain of DDR1 and no test substance])×100.
# The calculated inhibition rates were fitted to a sigmoidal dose-response curve by regression analysis using the Prism 5.04 (GraphPad Software, Inc.) to calculate the IC50 value of the test substance.
# T1 sequence (Q08345 439-913 limits assumed): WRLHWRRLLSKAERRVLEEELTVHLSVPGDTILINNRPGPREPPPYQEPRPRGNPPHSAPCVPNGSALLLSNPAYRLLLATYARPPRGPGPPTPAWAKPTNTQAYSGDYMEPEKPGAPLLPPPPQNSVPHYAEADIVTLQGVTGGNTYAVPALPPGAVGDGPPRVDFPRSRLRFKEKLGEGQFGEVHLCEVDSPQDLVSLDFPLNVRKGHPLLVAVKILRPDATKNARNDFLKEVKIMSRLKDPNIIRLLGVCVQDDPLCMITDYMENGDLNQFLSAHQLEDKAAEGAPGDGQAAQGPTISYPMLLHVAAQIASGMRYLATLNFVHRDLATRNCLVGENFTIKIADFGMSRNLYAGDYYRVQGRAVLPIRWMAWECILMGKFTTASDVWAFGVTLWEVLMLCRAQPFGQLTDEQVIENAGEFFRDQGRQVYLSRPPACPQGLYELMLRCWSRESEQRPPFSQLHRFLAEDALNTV
row,Compound,IC50 [µM]
1,"COc1c(CO)cc(OC(F)(F)F)cc1NC(=O)N[C@H]1CC[C@H](OCc2cccnc2)CC1 [Example 67, 1-(3-(hydroxymethyl)-2-methoxy-5-(trifluoromethoxy)phenyl)-3-(trans-4-(pyridin-3-ylmethoxy)cyclohexyl)urea]",0.00969
2,"COc1ccc(OC(F)(F)F)cc1NC(=O)N[C@H]1CC[C@H](OCc2cccnc2)CC1 [Example 68, 1-(2-methoxy-5-(trifluoromethoxy)phenyl)-3-(trans-4-(pyridin-3-ylmethoxy)cyclohexyl)urea]",0.0166
3,"COc1ccc(C(F)(F)F)cc1NC(=O)N[C@H]1CC[C@H](OCc2cccnc2)CC1 [Example 69, 1-(2-methoxy-5-(trifluoromethyl)phenyl)-3-(trans-4-(pyridin-3-ylmethoxy)cyclohexyl)urea]",0.0172
4,"CNc1cc(O[C@H]2CC[C@H](NC(=O)Nc3cc(OC(F)(F)F)cc(CO)c3OC)CC2)ncn1 [Example 70, 1-(3-(hydroxymethyl)-2-methoxy-5-(trifluoromethoxy)phenyl)-3-(trans-4-((6-(methylamino)pyrimidin-4-yl)oxy)cyclohexyl)urea]",0.0134
5,"CNc1cc(O[C@H]2CC[C@H](NC(=O)Nc3cc(C(F)(F)F)cc(CO)c3OC)CC2)ncn1 [Example 71, 1-(3-(hydroxymethyl)-2-methoxy-5-(trifluoromethyl)phenyl)-3-(trans-4-((6-(methylamino)pyrimidin-4-yl)oxy)cyclohexyl)urea]",0.0108
6,"COc1ccc(OC(F)(F)F)cc1NC(=O)N[C@H]1CC[C@H](COCc2cccnc2)CC1 [Example 72, 1-(2-methoxy-5-(trifluoromethoxy)phenyl)-3-(trans-4-((pyridin-3-ylmethoxy)methyl)cyclohexyl)urea]",0.0822
7,"COc1ccc(C(F)(F)F)cc1NC(=O)N[C@H]1CC[C@H](COCc2cccnc2)CC1 [Example 73, 1-(2-methoxy-5-(trifluoromethyl)phenyl)-3-(trans-4-((pyridin-3-ylmethoxy)methyl)cyclohexyl)urea]",0.0577
8,"COc1ccc(OC(F)(F)F)cc1NC(=O)N[C@H]1CC[C@H](COCc2ccncc2)CC1 [Example 74, 1-(2-methoxy-5-(trifluoromethoxy)phenyl)-3-(trans-4-((pyridin-4-ylmethoxy)methyl)cyclohexyl)urea]",0.0252
9,"COc1ccc(C(F)(F)F)cc1NC(=O)N[C@H]1CC[C@H](COCc2ccncc2)CC1 [Example 75, 1-(2-methoxy-5-(trifluoromethyl)phenyl)-3-(trans-4-((pyridin-4-ylmethoxy)methyl)cyclohexyl)urea]",0.02
10,"O=C(Nc1cc(C(F)(F)F)ccc1OC1COC1)N[C@H]1CC[C@H](OCc2cccnc2)CC1 [Example 76, 1-(2-(oxetan-3-yloxy)-5-(trifluoromethyl)phenyl)-3-(trans-4-(pyridin-3-ylmethoxy)cyclohexyl)urea]",0.0141
11,"COc1ccc(OC(F)(F)F)cc1NC(=O)N[C@H]1CC[C@H](COc2cccc(C(N)=O)c2)CC1 [Example 78, 3-((trans-4-(3-(2-methoxy-5-(trifluoromethoxy)phenyl)ureido)cyclohexyl)methoxy)benzamide]",0.0801
12,"COc1c(CO)cc(OC(F)(F)F)cc1NC(=O)N[C@H]1CC[C@H](Oc2ccnc(-c3cccnc3)n2)CC1 [Example 79, 1-(3-(hydroxymethyl)-2-methoxy-5-(trifluoromethoxy)phenyl)-3-(trans-4-((2-(pyridin-3-yl)pyrimidin-4-yl)oxy)cyclohexyl)urea]",0.0228
13,"CNc1nccc(O[C@H]2CC[C@H](NC(=O)Nc3cc(OC(F)(F)F)cc(CO)c3OC)CC2)n1 [Example 80, 1-(3-(hydroxymethyl)-2-methoxy-5-(trifluoromethoxy)phenyl)-3-(trans-4-((2-(methylamino)pyrimidin-4-yl)oxy)cyclohexyl)urea]",0.0249
